Laboratory results as given in ChEMBL document CHEMBL3881525, “Analogs of dehydrophenylahistins and their therapeutic use” (2007).
Converted amounts (≈) assume the structure as drawn. The source made the active and inactive calls. No cut-off for these calls is given here.

How the values were obtained:
MCF7 [1] = assay: Antimitotic activity in human MCF7 cells assessed as decrease in microtubule polymer formation measured after 20 hrs by immunofluorescence analysis relative to control; type: functional, cell-based
[2] = Antifungal activity against Candida glabrata measured after 48 hrs by broth dilution method; type: functional; settings: Nakaseomyces glabratus
[3] = (§1) Antimitotic activity in human MCF7 cells assessed as bipolar cells with uncompressed chromosomes at mitotic block IC50 measured after 20 hrs by immunofluorescence analysis relative to control; type: functional
MCF7 [4] = assay: as §1; type: functional
MCF7 [5] = assay: Antimitotic activity in human MCF7 cells assessed as microtubule polymer at twice mitotic block IC50 measured after 20 hrs by immunofluorescence analysis relative to control; type: functional, cell-based
MCF7 [6] = assay: Antimitotic activity in human MCF7 cells assessed as mitotic index measured after 20 hrs by DAPI-staining based fluorescence microscopic analysis; type: functional, cell-based
HeLa [7] = assay: Effect on cell cycle progression in human HeLa cells assessed as reduction in 2N cells at 200 nM; type: functional, cell-based
MES-SA [8] = assay: Ratio of EC50 for taxol-resistant human MES-SA/DX5 cells expressing MDR1 mRNA and P-gp to EC50 for taxol-sensitive human MES-SA cells; type: functional
[9] = Antiproliferative activity against taxol-resistant human MES-SA/Dx5 cells expressing MDR1 mRNA and P-gp pretreated with p-gp inhibitor cyclosporinA followed by compound addition; type: functional, cell-based
[10] = Cytotoxicity against human HT-29 cells assessed as reduction in cell viability measured after 48 hrs by resazurin dye-based fluorometric analysis; type: functional; settings: Homo sapiens, HT-29, 48 h
HeLa [11] = assay: Effect on cell cycle progression in human HeLa cells assessed as […] cells at 200 nM; type: functional, cell-based
[12] = Antitumor activity against mouse B16F10 cells allografted in nude mouse assessed as mean growth inhibition at 10 mg/kg, iv qd for 5 days relative to control; type: functional, B16-F10; parameters: scale not given: the % may be the effect or the level left
[13] = Antitumor activity against human MDA-MB-231 cells xenografted in nude mouse assessed as tumor growth inhibition at 7.5 mg/kg, ip qd for 5 days relative to control; type: functional; settings: MDA-MB-231, ip, 120 h, read-out: TGI
[14] = Antiproliferative activity against taxol-resistant human MES-SA/Dx5 cells expressing MDR1 mRNA and P-gp; type: functional, cell-based
[15] = Antiproliferative activity against taxol-sensitive human MES-SA cells pretreated with p-gp inhibitor cyclosporinA followed by compound addition; type: functional, cell-based
[16] = Antiproliferative activity against taxol-sensitive human MES-SA cells […]; type: functional, cell-based
MES-SA [17] = assay: Ratio of IC50 for taxol-sensitive human […] to IC50 for taxol-resistant human MES-SA/DX5 cells expressing MDR1 mRNA and P-gp; type: functional
MCF7 [18] = assay: Ratio of IC50 for human taxol-sensitive MCF7 cells to IC50 for human taxol-resistant MCF7/ADR cells; type: functional
[19] = Antiproliferative activity against human taxol-sensitive MCF7 cells; type: functional, cell-based
MES-SA [20] = assay: Ratio of IC50 for taxol-sensitive human […] to IC50 for taxol-sensitive human […] pretreated with p-gp inhibitor cyclosporinA followed by compound addition; type: functional
[21] = Drug level assessed as human hepatic cytochrome P450-mediated compound formation treated with (+/-)phenylahistin; type: ADME
[22] = Antitumor activity against human A549 cells xenografted in nude mouse assessed as tumor growth inhibition at 7.5 mg/kg, ip qd for 5 days relative to control; type: functional; settings: 120 h, read-out: TGI
[23] = Antitumor activity against human MCF7 cells xenografted in nude mouse assessed as tumor growth inhibition at 7.5 mg/kg, ip qd for 5 days relative to control; type: functional; settings: 120 h, read-out: TGI
[24] = Antitumor activity against human A549 cells xenografted in nude mouse assessed as tumor growth inhibition at […], ip qd for 5 days relative to control; type: functional; settings: 120 h, read-out: TGI
MCF7 [25] = assay: Potentiation of taxotere-induced antitumor activity against human MCF7 cells xenografted in nude mouse assessed as tumor growth inhibition at 7.5 mg/kg, ip qd for 4 days measured on day 7; type: functional, organism-based
[26] = Antitumor activity against human DU145 cells xenografted in nude mouse assessed as tumor growth inhibition at […], iv administered every third day measured on day 28 relative to control; type: functional; settings: DU-145, iv, 672 h, read-out: TGI
[27] = Cytotoxicity against human CCD-27Sk cells assessed as reduction in cell viability measured after 48 hrs by resazurin dye-based fluorometric analysis
[28] = Cytotoxicity against human Jurkat cells; type: functional, cell-based
HL-60 = assay: Ratio of IC50 for human mitoxantrone-sensitive HL60 cells to IC50 for human mitoxantrone-resistant HL60/MX2 cells; type: functional
[29] = Cytotoxicity against human CCD-27Sk cells assessed as reduction in cell viability measured after 48 hrs by resazurin dye-based fluorometric analysis relative to control; settings: read-out: INH
[30] = Cytotoxicity against human OVCAR3 cells assessed as reduction in cell viability measured after 48 hrs by resazurin dye-based fluorometric analysis; type: functional; settings: OVCAR-3, 48 h
[31] = Cytotoxicity against human HT-29 cells assessed as reduction in cell viability measured after 48 hrs by resazurin dye-based fluorometric analysis relative to control; type: functional
[32] = Antiproliferative activity against human mitoxantrone-resistant HL60/MX2 cells; type: functional, cell-based; settings: HL-60
Aspergillus fumigatus [33] = assay: Antifungal activity against Aspergillus fumigatus isolate 1 measured after 48 hrs by broth dilution method; type: functional; settings: isolate 1, 48 h
Candida albicans [34] = assay: Antifungal activity against Candida albicans ATCC 10231 measured after 48 hrs by broth dilution method; type: functional; settings: ATCC 10231, 48 h
[35] = Cytotoxicity against human PC3 cells assessed as reduction in cell viability measured after 48 hrs by resazurin dye-based fluorometric analysis relative to control; type: functional, PC-3; parameters: concentration or dose not given beside the values
[36] = Cytotoxicity against mouse B16F10 cells assessed as reduction in cell viability measured after 48 hrs by resazurin dye-based fluorometric analysis; type: functional; settings: B16-F10, 48 h
Aspergillus fumigatus [37] = assay: Antifungal activity against Aspergillus fumigatus isolate 2 measured after 48 hrs by broth dilution method; type: functional; settings: isolate 2, 48 h
[38] = Cytotoxicity against human OVCAR3 cells assessed as reduction in cell viability measured after 48 hrs by resazurin dye-based fluorometric analysis relative to control; type: functional, OVCAR-3
[39] = Cytotoxicity against human PC3 cells assessed as reduction in cell viability measured after 48 hrs by resazurin dye-based fluorometric analysis; type: functional; settings: PC-3, 48 h
[40] = Cytotoxicity against human NCI-H292 cells assessed as reduction in cell viability measured after 48 hrs by resazurin dye-based fluorometric analysis; type: functional; settings: NCI-H292, 48 h
MDA-MB-231 = assay: Ratio of IC50 for human CCD-27sk cells to IC50 for human MDA-MB-231 cells
PC-3 = assay: Ratio of IC50 for human CCD-27sk cells to IC50 for human PC3 cells
HUVEC = assay: Induction of monolayer permeability in HUVEC assessed as colchicin transport at 2 uM measured up to 1 hr; type: functional, cell-based; settings: Homo sapiens
[41] = Antiproliferative activity against human mitoxantrone-sensitive HL60 cells; type: functional, cell-based; settings: HL-60
NCI-H292 = assay: Ratio of IC50 for human CCD-27sk cells to IC50 for human NCI-H292 cells
MES-SA/Dx5 = assay: Ratio of IC50 for taxol-resistant human MES-SA/Dx5 cells expressing MDR1 mRNA and P-gp to IC50 for taxol-resistant human MES-SA/Dx5 cells expressing MDR1 mRNA and P-gp pretreated with p-gp inhibitor cyclosporinA followed by compound addition; type: functional
Jurkat = assay: Induction of apoptosis in human Jurkat cells assessed as caspase3 activation; type: functional, cell-based
[42] = Cytotoxicity against mouse B16F10 cells assessed as reduction in cell viability measured after 48 hrs by resazurin dye-based fluorometric analysis relative to control; type: functional, B16-F10
[43] = Cytotoxicity against human MDA-MB-231 cells assessed as reduction in cell viability measured after 48 hrs by resazurin dye-based fluorometric analysis; type: functional; settings: MDA-MB-231, 48 h
Aspergillus fumigatus [44] = assay: Fungicidal activity against Aspergillus fumigatus isolate 2 measured after 48 hrs by broth dilution method; type: functional; settings: isolate 2, 48 h
Candida albicans [45] = assay: Antifungal activity against Candida albicans 90028 measured after 48 hrs by broth dilution method; type: functional; settings: Candida albicans, 90028, 48 h
HT-29 = assay: Ratio of IC50 for human CCD-27sk cells to IC50 for human HT-29 cells
[46] = Antitumor activity against human HT-29 cells xenografted in nude mouse assessed as tumor growth inhibition at 30 mg/kg, ip administered every third day for 5 days in presence of CPT-11 relative to control; type: functional; settings: HT-29, ip, 120 h, read-out: TGI
[47] = Cytotoxicity against human NCI-H292 cells assessed as reduction in cell viability measured after 48 hrs by resazurin dye-based fluorometric analysis relative to control; type: functional
B16-F10 = assay: Ratio of IC50 for human CCD-27sk cells to IC50 for mouse B16F10 cells

SMILES: COc1cc2c(c(OC)c1OC)-c1ccc(OC)c(=O)cc1[C@@H](NC(C)=O)CC2 [COLCHICINE]
- Activity (MCF7 [1]): Dose-dependent effect
- MIC [2]: > 128 µg/mL
- Activity [3]: 50%
- Activity (MCF7 [4]): Active
- Activity (MCF7 [5]): Active
- inhibition (MCF7 [6]): Dose-dependent effect

SMILES: CC(=O)O[C@H]1C(=O)[C@@]2(C)[C@H]([C@H](OC(=O)c3ccccc3)[C@]3(O)C[C@H](OC(=O)[C@H](O)[C@@H](NC(=O)c4ccccc4)c4ccccc4)C(C)=C1C3(C)C)[C@]1(OC(C)=O)CO[C@@H]1C[C@@H]2O [PACLITAXEL]
- Activity (HeLa [7]): Active
- Ratio EC50 (MES-SA [8]): 417
- IC50 [9]: 2 to 40 nM
- EC50 [10]: 16.2 nM
- Activity (HeLa [11]): Active
- Activity [12]: 35%
- inhibition in vivo at 7.5 mg/kg [13]: 53%
- IC50 [14]: 100 to 24000 nM
- EC50 [15]: 2.8 to 18 nM
- EC50 [16]: 4.8 to 13 nM
- Ratio IC50 (MES-SA [17]): >8 - 3000
- Ratio IC50 (MCF7 [18]): >38
- IC50 [19]: 2.6 nM
- Ratio IC50 (MES-SA [20]): 0.4 - 0.6

SMILES: CC(C)(c1[nH]cnc1/C=C1\NC(=O)[C@H](Cc2ccccc2)NC1=O)C1CO1 (stereo in doubt)
- Drug metabolism [21]: Metabolite_Detected

SMILES: CC(=O)O[C@@]12CO[C@@H]1C[C@H](O)[C@@]1(C)C(=O)[C@H](O)C3=C(C)[C@@H](OC(=O)[C@H](O)[C@@H](NC(=O)OC(C)(C)C)c4ccccc4)C[C@@](O)([C@@H](OC(=O)c4ccccc4)[C@H]21)C3(C)C [DOCETAXEL ANHYDROUS]
- inhibition in vivo at 7.5 mg/kg [22]: 26%
- inhibition in vivo at 7.5 mg/kg [23]: 12 to 58%
- inhibition in vivo at […] [24]: 26.1%
- TGI (MCF7 [25]): Active
- inhibition in vivo at […] [26]: 44.8%

SMILES: CC(C)(C)c1[nH]cnc1/C=C1\NC(=O)C(Cc2ccccc2)NC1=O (centres undefined)
- EC50 [27]: > 20000 nM
- IC50 [28]: 165 nM
- Ratio IC50 (HL-60): 0.69
- cytotoxicity at 48 h [29]: 45%
- EC50 [30]: > 20000 nM
- Activity [31]: 88%
- IC50 [9]: 622 nM
- MIC [2]: > 32 µg/mL
- EC50 [10]: 255 to 420 nM
- EC50 [32]: 175 nM
- MIC (Aspergillus fumigatus [33]): > 16 µg/mL
- MIC (Candida albicans [34]): > 32 µg/mL
- Activity [35]: 59.5%
- IC50 [14]: 694 to 835 nM
- EC50 [36]: 736 nM
- MIC (Aspergillus fumigatus [37]): < 0.03 µg/mL
- IC50 [15]: 27.4 nM
- inhibition (INH) [38]: 37%
- EC50 [16]: 122 to 144 nM
- EC50 [39]: 174 nM
- EC50 [40]: 384 nM
- TGI (MCF7 [25]): Active
- Ratio IC50 (MDA-MB-231): >20 - 100
- Ratio IC50 (PC-3): >20 - 100
- Activity (HUVEC): Active
- EC50 [41]: 255 nM
- Ratio IC50 (NCI-H292): >20 - 100
- Ratio IC50 (MES-SA/Dx5): 0.9
- Activity (Jurkat): Dose-dependent effect
- inhibition (INH) [42]: 74%
- EC50 [43]: 387 nM
- MFC (Aspergillus fumigatus [44]): 0.125 µg/mL (≈ 0.369 µM)
- MIC (Candida albicans [45]): > 32 µg/mL
- Ratio IC50 (HT-29): >20 - 100
- inhibition in vivo at 30 mg/kg [46]: 77.7%
- inhibition (INH) [47]: 65%
- Ratio IC50 (MES-SA [20]): 1.3
- Ratio IC50 (B16-F10): >20 - 100
